What was measured:
[1] = target: Mitogen-activated protein kinase kinase kinase 10 (Homo sapiens) (UniProt Q02779); experiment: Residual activity of human MLK2/MAP3K10 using myelin basic protein as substrate at 1 uM in presence of 32P-ATP by Hotspot assay relative to control
[2] = target: Dual specificity protein kinase CLK4 (Homo sapiens) (UniProt Q9HAZ1); experiment: Inhibition of human CLK4 using myelin basic protein as substrate at 1 uM in presence of 32P-ATP by Hotspot assay relative to control; values are per cent of control
Chain of Dual specificity protein kinase CLK4 (Homo sapiens) (Q9HAZ1 whole entry, looked up): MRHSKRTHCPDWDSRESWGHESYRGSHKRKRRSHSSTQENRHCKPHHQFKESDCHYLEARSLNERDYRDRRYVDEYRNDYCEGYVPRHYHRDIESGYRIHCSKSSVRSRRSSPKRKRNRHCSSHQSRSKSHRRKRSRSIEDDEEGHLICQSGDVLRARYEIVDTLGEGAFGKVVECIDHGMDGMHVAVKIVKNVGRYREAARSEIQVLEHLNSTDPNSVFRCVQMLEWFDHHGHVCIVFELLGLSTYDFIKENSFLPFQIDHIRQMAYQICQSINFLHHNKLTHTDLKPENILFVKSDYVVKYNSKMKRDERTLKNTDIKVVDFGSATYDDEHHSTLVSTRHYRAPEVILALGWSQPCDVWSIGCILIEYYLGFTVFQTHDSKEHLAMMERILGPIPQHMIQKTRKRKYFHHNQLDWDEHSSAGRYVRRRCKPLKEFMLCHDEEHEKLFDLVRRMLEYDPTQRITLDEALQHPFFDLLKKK

[3] = target: T1, Homeodomain-interacting protein kinase 4 (Homo sapiens) (UniProt Q8NE63); experiment: Inhibition of human HIPK4 using myelin basic protein as substrate at 1 uM in presence of 32P-ATP by Hotspot assay relative to control; values are per cent of control
T1 sequence (whole entry): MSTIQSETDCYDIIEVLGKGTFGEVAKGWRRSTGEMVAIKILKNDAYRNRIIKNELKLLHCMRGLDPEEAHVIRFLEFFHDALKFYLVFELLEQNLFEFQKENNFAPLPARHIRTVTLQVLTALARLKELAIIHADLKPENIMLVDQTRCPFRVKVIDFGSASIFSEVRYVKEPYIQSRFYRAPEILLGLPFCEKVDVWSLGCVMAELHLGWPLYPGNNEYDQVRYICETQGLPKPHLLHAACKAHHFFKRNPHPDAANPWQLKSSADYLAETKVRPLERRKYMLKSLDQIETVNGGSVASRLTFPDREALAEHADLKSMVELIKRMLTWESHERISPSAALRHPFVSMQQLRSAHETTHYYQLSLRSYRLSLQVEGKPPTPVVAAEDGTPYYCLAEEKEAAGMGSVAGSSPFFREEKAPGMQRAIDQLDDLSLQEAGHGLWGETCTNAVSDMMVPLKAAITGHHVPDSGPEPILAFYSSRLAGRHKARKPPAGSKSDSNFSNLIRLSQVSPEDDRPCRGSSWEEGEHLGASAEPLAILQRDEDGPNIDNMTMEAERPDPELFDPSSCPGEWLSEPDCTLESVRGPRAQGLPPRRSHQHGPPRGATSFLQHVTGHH

[4] = target: Insulin receptor-related protein (Homo sapiens) (UniProt P14616); experiment: Inhibition of human IRR/INSRR using myelin basic protein as substrate at 1 uM in presence of 32P-ATP by Hotspot assay relative to control; values are per cent of control
Chain of Insulin receptor-related protein (Homo sapiens) (P14616 27-742 limits assumed): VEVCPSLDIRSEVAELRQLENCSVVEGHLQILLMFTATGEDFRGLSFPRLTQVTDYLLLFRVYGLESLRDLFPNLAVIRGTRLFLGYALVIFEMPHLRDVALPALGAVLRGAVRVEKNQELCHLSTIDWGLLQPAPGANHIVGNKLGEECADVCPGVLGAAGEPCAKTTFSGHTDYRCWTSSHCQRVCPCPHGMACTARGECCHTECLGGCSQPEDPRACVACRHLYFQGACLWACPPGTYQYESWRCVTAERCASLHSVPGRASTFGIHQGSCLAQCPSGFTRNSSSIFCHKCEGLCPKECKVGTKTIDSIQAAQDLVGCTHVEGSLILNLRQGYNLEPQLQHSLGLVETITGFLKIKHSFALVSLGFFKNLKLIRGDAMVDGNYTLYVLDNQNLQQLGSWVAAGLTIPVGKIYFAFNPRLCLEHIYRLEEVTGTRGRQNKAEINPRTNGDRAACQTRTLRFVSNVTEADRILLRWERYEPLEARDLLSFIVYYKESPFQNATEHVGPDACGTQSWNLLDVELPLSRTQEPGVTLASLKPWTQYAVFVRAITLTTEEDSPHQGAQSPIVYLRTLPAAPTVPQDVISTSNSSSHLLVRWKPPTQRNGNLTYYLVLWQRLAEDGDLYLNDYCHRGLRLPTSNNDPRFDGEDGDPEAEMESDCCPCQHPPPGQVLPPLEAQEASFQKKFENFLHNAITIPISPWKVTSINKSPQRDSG
Chain of Insulin receptor-related protein (Homo sapiens) (P14616 747-1297 limits assumed): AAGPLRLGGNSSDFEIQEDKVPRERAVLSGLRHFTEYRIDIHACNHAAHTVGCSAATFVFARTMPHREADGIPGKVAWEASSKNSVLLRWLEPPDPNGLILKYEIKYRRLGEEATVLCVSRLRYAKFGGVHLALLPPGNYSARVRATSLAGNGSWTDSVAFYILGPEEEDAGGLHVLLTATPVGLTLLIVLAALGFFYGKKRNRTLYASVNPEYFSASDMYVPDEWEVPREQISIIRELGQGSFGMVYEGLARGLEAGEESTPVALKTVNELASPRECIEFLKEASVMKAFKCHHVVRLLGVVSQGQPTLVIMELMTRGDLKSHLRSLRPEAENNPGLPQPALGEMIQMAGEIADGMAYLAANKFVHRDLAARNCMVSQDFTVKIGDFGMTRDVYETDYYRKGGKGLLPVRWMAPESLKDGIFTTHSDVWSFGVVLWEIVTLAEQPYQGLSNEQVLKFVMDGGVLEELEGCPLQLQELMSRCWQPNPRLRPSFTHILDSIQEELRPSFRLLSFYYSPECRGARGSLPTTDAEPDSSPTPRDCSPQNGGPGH

[5] = target: Cyclin-dependent kinase 5/CDK5 activator 1 (Homo sapiens) (UniProt Q00535+Q15078); experiment: Inhibition of human CDK5/p35 using RB Protein as substrate at 1 uM in presence of 32P-ATP by Hotspot assay relative to control; values are per cent of control
Chain of Cyclin-dependent kinase 5/CDK5 activator 1 (Homo sapiens) (Q00535 whole entry): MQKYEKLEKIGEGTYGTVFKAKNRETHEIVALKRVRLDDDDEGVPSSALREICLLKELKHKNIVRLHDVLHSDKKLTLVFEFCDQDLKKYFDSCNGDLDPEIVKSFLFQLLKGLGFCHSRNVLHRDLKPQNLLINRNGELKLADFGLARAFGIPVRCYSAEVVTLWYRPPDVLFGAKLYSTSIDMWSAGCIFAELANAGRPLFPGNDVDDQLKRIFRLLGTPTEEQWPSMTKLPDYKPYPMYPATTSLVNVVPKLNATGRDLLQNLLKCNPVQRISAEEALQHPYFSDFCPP
Chain of Cyclin-dependent kinase 5/CDK5 activator 1 (Homo sapiens) (Q15078 99-307 partner limits assumed): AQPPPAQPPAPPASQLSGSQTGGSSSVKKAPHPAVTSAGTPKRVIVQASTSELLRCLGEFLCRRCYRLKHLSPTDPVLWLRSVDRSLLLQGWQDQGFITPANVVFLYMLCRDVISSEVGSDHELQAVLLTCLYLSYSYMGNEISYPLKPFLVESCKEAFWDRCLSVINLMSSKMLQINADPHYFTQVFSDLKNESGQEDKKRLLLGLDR

[6] = target: T2, cAMP-dependent protein kinase catalytic subunit PRKX (Homo sapiens) (UniProt P51817); experiment: Inhibition of human PRKX using LRRASLG as substrate at 1 uM in presence of 32P-ATP by Hotspot assay relative to control; values are per cent of control
T2 sequence (whole entry): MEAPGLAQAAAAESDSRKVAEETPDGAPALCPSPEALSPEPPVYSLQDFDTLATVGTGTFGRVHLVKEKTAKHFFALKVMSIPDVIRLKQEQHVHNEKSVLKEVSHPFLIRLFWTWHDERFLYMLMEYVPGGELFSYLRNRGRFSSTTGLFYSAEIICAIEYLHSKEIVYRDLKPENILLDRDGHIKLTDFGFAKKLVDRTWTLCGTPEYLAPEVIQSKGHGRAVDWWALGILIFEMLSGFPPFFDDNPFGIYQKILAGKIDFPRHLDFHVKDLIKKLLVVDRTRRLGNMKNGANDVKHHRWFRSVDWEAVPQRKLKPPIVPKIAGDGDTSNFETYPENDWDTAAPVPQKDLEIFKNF

[7] = target: T3, Ephrin type-B receptor 4 (Homo sapiens) (UniProt P54760); experiment: Inhibition of human EPHB4 using poly[Glu:Tyr] (4:1) as substrate at 1 uM in presence of 32P-ATP by Hotspot assay relative to control; values are per cent of control
T3 sequence (whole entry): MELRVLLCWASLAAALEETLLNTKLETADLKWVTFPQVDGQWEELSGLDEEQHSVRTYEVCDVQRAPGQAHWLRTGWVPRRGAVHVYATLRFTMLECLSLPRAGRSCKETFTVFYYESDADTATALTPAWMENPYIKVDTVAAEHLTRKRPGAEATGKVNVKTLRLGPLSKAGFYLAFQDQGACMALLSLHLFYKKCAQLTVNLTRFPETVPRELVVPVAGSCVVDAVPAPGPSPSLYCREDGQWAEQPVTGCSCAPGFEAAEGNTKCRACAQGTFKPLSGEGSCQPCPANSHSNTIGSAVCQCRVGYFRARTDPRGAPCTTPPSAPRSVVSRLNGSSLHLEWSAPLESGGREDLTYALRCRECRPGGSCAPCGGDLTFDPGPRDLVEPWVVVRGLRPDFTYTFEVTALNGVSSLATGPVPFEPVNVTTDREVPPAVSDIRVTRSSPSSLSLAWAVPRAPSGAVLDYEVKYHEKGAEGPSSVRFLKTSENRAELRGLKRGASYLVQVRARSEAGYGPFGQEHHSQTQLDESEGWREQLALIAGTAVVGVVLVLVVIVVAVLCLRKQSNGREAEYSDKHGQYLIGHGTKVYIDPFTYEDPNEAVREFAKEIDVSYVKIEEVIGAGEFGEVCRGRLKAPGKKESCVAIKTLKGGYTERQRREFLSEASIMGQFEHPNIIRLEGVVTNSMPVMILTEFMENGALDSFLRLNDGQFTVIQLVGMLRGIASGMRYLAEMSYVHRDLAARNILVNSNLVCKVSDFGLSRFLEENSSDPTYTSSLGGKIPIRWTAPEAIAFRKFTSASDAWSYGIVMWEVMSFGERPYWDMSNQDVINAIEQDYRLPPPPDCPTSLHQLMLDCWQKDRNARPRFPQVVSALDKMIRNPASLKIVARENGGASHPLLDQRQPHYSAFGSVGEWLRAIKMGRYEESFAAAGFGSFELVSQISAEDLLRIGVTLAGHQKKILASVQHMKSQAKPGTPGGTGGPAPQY

Chain of Mitogen-activated protein kinase kinase kinase 10 (Homo sapiens) (Q02779 whole entry, looked up): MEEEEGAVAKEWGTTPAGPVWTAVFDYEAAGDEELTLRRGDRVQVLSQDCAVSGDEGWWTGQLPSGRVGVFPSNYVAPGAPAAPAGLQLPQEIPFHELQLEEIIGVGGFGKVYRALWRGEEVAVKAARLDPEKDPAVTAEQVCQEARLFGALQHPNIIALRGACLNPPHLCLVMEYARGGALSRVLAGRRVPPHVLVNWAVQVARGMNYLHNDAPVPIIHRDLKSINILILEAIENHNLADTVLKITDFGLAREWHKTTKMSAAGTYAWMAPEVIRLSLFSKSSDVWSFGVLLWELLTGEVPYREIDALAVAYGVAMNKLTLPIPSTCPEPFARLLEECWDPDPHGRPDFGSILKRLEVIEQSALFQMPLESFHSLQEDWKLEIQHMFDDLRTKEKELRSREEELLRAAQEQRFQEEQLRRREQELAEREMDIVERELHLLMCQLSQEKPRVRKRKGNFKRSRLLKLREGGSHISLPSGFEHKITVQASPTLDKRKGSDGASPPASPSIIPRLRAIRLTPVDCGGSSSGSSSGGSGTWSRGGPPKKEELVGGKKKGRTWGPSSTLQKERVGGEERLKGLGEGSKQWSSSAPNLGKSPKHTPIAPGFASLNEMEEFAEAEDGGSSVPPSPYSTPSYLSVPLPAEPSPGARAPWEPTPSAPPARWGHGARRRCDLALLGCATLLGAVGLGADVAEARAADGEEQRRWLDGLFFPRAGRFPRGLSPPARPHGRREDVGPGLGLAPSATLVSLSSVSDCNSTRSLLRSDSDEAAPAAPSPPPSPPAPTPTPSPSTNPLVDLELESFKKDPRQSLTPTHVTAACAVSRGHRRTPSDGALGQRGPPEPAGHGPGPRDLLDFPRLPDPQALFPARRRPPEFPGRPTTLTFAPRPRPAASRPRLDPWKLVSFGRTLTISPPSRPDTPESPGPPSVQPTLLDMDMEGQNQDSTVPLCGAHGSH

Row | Compound | residual activity [1] [%] | residual activity [2] [%] | residual activity [3] [%] | residual activity [4] [%] | residual activity [5] [%] | residual activity [6] [%] | residual activity [7] [%]
1 | CC(C)S(=O)(=O)c1ccc2nccc(Nc3ccc4scnc4c3)c2c1 | 84.5 | 92.2 | 93.7 | 98.6 | 98.7 | 101 | 60.2
2 | Cc1cc(-c2cnc(N)c3c(-c4ccc5scnc5c4)csc23)n(C)n1 | 97.5 | 84.6 | 106 | 86.7 | 97.8 | 94.2 | 56.3
3 | CNC(=O)c1ccc2c(c1)ncn2-c1ccc(CC(=O)OC(C)(C)C)cc1 | 90.9 | 93.8 | 107 | 93.3 | 97.1 | 93.6 | 89.7

From ChEMBL document CHEMBL5649166, “RIP3 induces apoptosis independent of pronecrotic kinase activity” (Mol Cell, 2014)
